In patent US4356188A, “1-Naphthyl-acetic acid derivatives and their therapeutic applications” (Institut de Recherche Scientifique "I.R.S.", priority 1978, dated 1982):
Where two headings read alike, the source gives them in different places.

Assays:
[1] = Antalgic activity: phenylbenzoquinone-induced writhing (Sigmund, modified); format: in vivo, male Ch. River mice; conditions: Mus musculus, po; mice, p.o., 30 minutes before phenylbenzoquinone; spasms counted fifth to tenth minute; dosages in method 25-50-100 mg/kg; read-out: Antalgic activity ID 50
Protocol: The method used is that according to Sigmund and co-workers (Soc. Exp. Biol. Med. 1957, 95, 729) as modified by Hendershot & Forsaith (J. Pharm. Exp. Therap. 1959, 125, 237-240) and Lines & Gouret (J. Pharm. (Paris) 1972, 3, 513-515). Intraperitoneal administration of 0.25 ml/20 g, in mice, of a 0.02% phenylbenzoquinone solution in 5% alcohol, produces the development of a pain syndrome which is characterized by writhing movements and by hollow flanks. Treatment of groups of 10 male Ch. River mice (average weight: 20 g) at dosages of 25-50 and 100 mg/kg p.o. (a control group being administered only neutral olive oil; 0.5 ml/20 g) is effected 30 minutes prior to phenylbenzoquinone administration. The ID 50 is calculated as previously indicated, from the percent inhibition of the spasms counted from the fifth to the tenth minute that follow the injection of the algogenic agent.

in vivo = conditions: rat, po, read-out: Acute toxicity LD 50
Protocol: Groups of 5 male CH. River rats, having an average weight of 125 g, kept on a water diet for 18 hours prior to the test, are orally administered the test materials, dissolved in neutral olive oil (1 ml/100 g), at dosages of 250-500-1000 and 2000 mg/kg.
The death rate is recorded 7 days after the administration: the lethal dose 50 (LD 50) is determined according to the method by Litchfield & Wilcoxon.

[2] = Anti-pyretic activity: brewer's yeast-induced fever; format: in vivo; conditions: Rattus norvegicus; rats, oral, 17 hours after brewer's yeast; mean of 5 hourly determinations; dosages in method 25-50-100 mg/kg; read-out: Anti-pyretic activity ID 50
Protocol: After determination of the rectal temperature, rats are sub-cutaneously administered 1 ml/100 g of a 20% brewer's yeast suspension, and are put on a water diet. 17 hours later, their temperature is again determined. The mean increase of the rectal temperature, under such experimental conditions, is about 1.5° C. The various test materials are then orally administered to groups of 10 rats (average weight: 140 g) at dosages of 25-50 and 100 mg/kg. A fourth group (control) is administered only olive oil (1 ml/100 g). The temperature drop subsequent to the treatment is followed hourly, for a period of time of 5 hours. The mean percent inhibition is calculated by effecting the mean of the 5 determinations, with respect to the value 1.5° C.

[3] = Anti-inflammatory activity: carrageenin-induced plantar edema test (Winter); format: in vivo; conditions: Rattus norvegicus; rats, oral, 1 hour before 1% carrageenin; mean of 7 hourly determinations; dosages in method 25-50-100 mg/kg; read-out: Anti-inflammatory activity ID 50
Protocol: The test selected is the test of the carrageenin-induced plantar edema, according to Winter (Proc. Soc. Exp. Biol., 1961, 111, 544). […] A fourth group (control) is administered only neutral olive oil (1 ml/100 g). One hour after the treatment, 0.1 ml of a 1% carrageenin suspension is injected in the left plantar aponevrosis. The intensity of the edema is evaluated by immersing the inflamed paw in a mercury plethystometer. The percent inhibition of the edema is calculated from the mean value of the 7 determinations made hourly after carrageenin administration. The dosage which inhibits inflammation by 50% (ID 50) is determined in the same manner as previously described.

[4] = Ulcerogenic activity (Robert & Nezamis, modified by Lwoff); parameters: species or system rats of Ch. River strain; conditions: rat, in vivo
Protocol: The technique used is that according to Robert & Nezamis (Proc. Soc. Exp. Biol. Med., 1958,99,443-447) as modified by Lwoff (J. Pharmacol. (Paris) 1971, 2, 81-83).
Groups of 20 rats of Ch. River strain (average weight: 130 g) kept on a water diet for the 24 hours prior to the test, are orally administered the test materials, at dosages of 50-100-200-400 and 800 mg/kg. A reference group is administered only neutral olive oil, at a dosage of 1 ml/100 g.
Six hours later, the animals are sacrificed by bulbar trauma, after which their stomachs are cut out, opened along the great curvature and rated according to a scale from 0 to 3, according to the extent of the ulceration.
The ulceration index for each dosage is calculated according to the following formula: [formula]
With this scoring method, a 100% ulceration index is equal to 300. The 50% ulcerogenic dosage (UD 50) is that which corresponds to an index of 150.

Structure (SMILES)	ED50 [1] [mg/kg]	LD50 at 168 h (in vivo) [mg/kg]	ED50 [2] [mg/kg]	ED50 [3] [mg/kg]	TD50 at 6 h ([4]; po) [mg/kg]	TD50 at 6 h ([4]; rats, oral, 6 hours, dose giving ulceration index 150, dosages in method 50-800 mg/kg, read-out: Ulcerogenic activity UD 50) [mg/kg]
CC(C)Cc1cccc2c(C(C)C(=O)O)cccc12 (centres unmarked) [Derivative 2, 2-[5-isobutyl-1-naphthyl]propionic acid]	4	130	< 1	5	–	–
CC(C)Cc1cccc2c(CC(=O)O)cccc12 [Derivative 1, [5-isobutyl-1-naphthyl]acetic acid]	24	600	0.7	15	> 800	–
COc1ccc2cc([C@H](C)C(=O)O)ccc2c1 [naproxen, reference compound]	10.6	–	4.1	3	–	43
CC(C)Cc1ccc(C(C)C(=O)O)cc1 (centres unmarked) [ibuprofen, reference compound]	9	–	12	38	220	–
